We go through one substance from patent US12403184B2, “Compositions and methods for treating neurodegenerative disroders” (priority 2018, dated 2025).

Experiment [1] has as its system HD R6/2 mice. Kind of experiment: Body weight, survival and behavior in HD R6/2 mice. It is filed as in vivo, mouse. As to the method:
Male R6/2 mice and their wild-type (WT) littermates (5 weeks old) were purchased from Jackson Laboratories [Bar Harbor, ME; B6CBA-TgN (HD exon1) 62; JAX stock number: 006494]. These mice (C57BL/6 and CBA genetic background) are transgenic for the 5′ end of the human HD gene carrying 100-150 glutamine (CAG) repeats.
Systemic peptide treatment in HD mice. All randomization and peptide treatments were prepared by an experimenter not associated with behavioral and neuropathology analysis. Male R6/2 mice (Tg) and their age-matched wild-type littermates (Wt) (6-week-old) were implanted with a 28-day osmotic pump (Alzet, Cupertino CA, Model 2004) containing TAT control peptide or DA1 peptide, which delivered peptides at a rate of 1 mg/kg/day. Male YAC128 mice (Tg) and their age-matched wild-type littermates (WT) were treated with TAT control peptide or DA1 peptide (1 mg/kg/day) by Alzet osmotic pump starting from the age of 3 months. The pump was replaced once every month.
Gross locomotor activity was assessed in R6/2 mice and age-matched wild-type littermates at the ages of 12 weeks, and in YAC128 mice and age-matched wildtype littermates at the ages of 2, 3, 6, 9, and 12 months. The mice were placed in the center of an activity chamber (Omnitech Electronics, Inc) and allowed to explore while being tracked by an automated beam system (Vertax, Omnitech Electronics Inc). Distance moved, horizontal and vertical activities were recorded. In R6/2 mice and wildtype littermates, one-hour locomotor activity was conducted. In YAC128 mice and wildtype littermates, 24 h of locomotor activity analysis was performed.
Hindlimb clasping was assessed with the tail suspension test once a week from the ages 8 to 12 weeks in R6/2 mice. The mice were suspended by the tail for 60 s, and the latency for the hindlimbs or all four paws to clasp was recorded using the score system: Clasping over 10 s, score 3; 5-10 s, score 2; 0-5 s, score 1; and 0 s, score 0.
The body weight and survival rate of HD mice and wild-type littermates were recorded throughout the study period.

Experiment [2] relates to Drp1 with its mitochondrial adaptors Mff, Fis1 and MIEF1. Kind of experiment: Immunoprecipitation of Drp1 with mitochondrial adaptors after crosslinking. The experiment is classed as cell-based, mouse. Conditions: HdhQ111 cells, 1 μM/day for 4 days. As to the method:
For Drp1-Mff or Drp-MiD51 (MIEF1) interaction, the cells were cross-linked by […] for 10 min at r.t., then […] in PBS was added to quench the redundant DSP activity. For Drp1-Fis1 interaction, the cells were cross-linked by 1% FA for 20 min at r.t., then added […] in PBS to quench the redundant activity. The cells were washed with PBS, sonicated, and lysed with 1% Triton X-100 total lysis buffer.

Experiment [3] deals with T1, GST-Drp1 and ATAD3A-Flag (Homo sapiens, UniProt Q9NVI7).
T1 construct: Abnova for GST-Drp1 L1170 (TNT kit); no catalogue number printed for GST-Drp1; host or cells: cell-free coupled transcription/translation (ATAD3A-Flag); GST-Drp1 purchased
T1 sequence (Q9NVI7 1-586): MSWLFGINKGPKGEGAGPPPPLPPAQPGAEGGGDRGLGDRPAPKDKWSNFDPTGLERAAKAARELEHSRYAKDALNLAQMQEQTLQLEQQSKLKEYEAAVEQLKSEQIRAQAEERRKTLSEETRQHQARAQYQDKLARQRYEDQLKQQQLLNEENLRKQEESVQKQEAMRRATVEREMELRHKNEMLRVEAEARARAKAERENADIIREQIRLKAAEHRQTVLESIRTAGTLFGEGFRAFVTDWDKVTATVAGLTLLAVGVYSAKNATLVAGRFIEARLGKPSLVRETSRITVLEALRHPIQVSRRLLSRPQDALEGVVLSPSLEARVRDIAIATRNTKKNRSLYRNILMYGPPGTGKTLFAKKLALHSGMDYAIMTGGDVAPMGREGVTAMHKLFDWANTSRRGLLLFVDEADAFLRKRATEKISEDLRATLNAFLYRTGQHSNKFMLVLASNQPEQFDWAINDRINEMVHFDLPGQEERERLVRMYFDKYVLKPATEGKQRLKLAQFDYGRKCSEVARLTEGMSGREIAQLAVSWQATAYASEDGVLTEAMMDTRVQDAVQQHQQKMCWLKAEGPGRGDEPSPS
The experiment in a line: GST pulldown assay, in vitro binding of GST-Drp1 and ATAD3A-Flag. Conditions: GST pull down, peptide 60 μM. The source says:
Using pcDNA3.1 (+)-ATAD3A-Flag plasmid as template, ATAD3A-Flag protein was synthesized by TNT® Quick Coupled Transcription/Translation System (Promega, Cat #L1170) followed by protein purification with Flag-peptide (Sigma, F3290). The expression of ATAD3A protein was confirmed by western blot analysis with both anti-ATAD3A and anti-Flag antibodies. This approach provides convenient single-tube, coupled transcription/translation reactions for eukaryotic cell-free protein expression and has been used to detect direct protein-protein interaction.
GST-Drp1 or GST control protein were incubated with Glutathione-beads in TBST buffer at r.t. After 1 h of incubation, ATAD3A-Flag protein was added, and thoroughly mixed in vibrating mixer for 30 mins at r.t., then transferred to 4° C. for overnight incubation Immunoprecipitates were then washed for three time and analyzed by SDS-PAGE.
To test the inhibitory function of DA1 peptide on in vitro binding between GST-Drp1 and ATAD3A-Flag, DA1 peptide or control peptide TAT (60 μM, each) was incubated with ATAD3A-Flag protein before mixing with GST-Drp1-glutathione beads complex.

For experiment [4], the system named is Drp1. Kind of experiment: Drp1 mitochondrial level and Drp1 polymerization by western blot in HD mouse striatal cells. The experiment is classed as cell-based. Here is the method: Cells were washed with cold phosphate-buffered saline (PBS) and incubated on ice in mitochondrial lysis buffer (250 mM sucrose, 20 mM HEPES-NaOH, pH 7.5, 10 mM KCl, 1.5 mM MgCl2, 1 mM EDTA, 1 mM EGTA, protease inhibitor cocktail, and phosphatase inhibitor cocktail) for 30 min. The cells were scraped and then disrupted 15 times by repeated aspiration through a 25-gauge needle. Mouse brains were minced and homogenized in mitochondrial lysis buffer to release mitochondria. The homogenates were spun at 800×g for 10 min at 4° C., and the resulting supernatants were spun at 12,000×g for 20 min at 4° C. The pellets were washed with lysis buffer and spun at 12,000×g again for 20 min at 4° C. The final pellets were suspended in lysis buffer containing 1% Triton X-100 and were mitochondrial-rich lysate fractions. The mitochondrial protein voltage-dependent anion channel (VDAC) was used as a loading control.
Protein concentration was measured by protein assay dye reagents (Bio-rad). The protein was resuspended in Laemmli buffer, loaded on SDS-PAGE, and transferred onto nitrocellulose membranes. Membranes were probed with the indicated antibodies, followed by visualization with ECL. Representative blots have been cropped for presentation.
Background: A western blot detects proteins with antibodies after separation by electrophoresis.

[5] abbreviates: R6/2 mice at the age of 12 weeks.

Where no end group is shown, it is not given here.

Consider “YGRKKRRQRRRGGEDKRKT-NH2 [DA1, YGRKKRRQRRR-GG-EDKRKT-NH2]”, for which, in experiment [1] (HD R6/2 mice, 1 mg/kg/day from 6 weeks, vs TAT), the body weight loss result was “moderately suppressed”. In addition, the survival result in experiment [1] (HD R6/2 mice, age 6 to 21 weeks, 1 mg/kg/day) is given as “greatly prolonged”. For the same substance, in experiment [1] (setting [5]), the horizontal activity result was “increased” and the total traveled distance result was “increased”. For the same substance, the “severity of clasping behavior” value in experiment [1] (R6/2 mice, four-week observation period) was “reduced”. For the same substance, the “interactions of Drp1 with its mitochondrial adaptors Mff, Fis1 and MIEF1” value in experiment [2] is “did not influence”. Further, the “binding of GST-Drp1 and ATAD3A-Flag in vitro” value in experiment [3] was “abolished”. Further, the Drp1 polymerization result in experiment [4] (HD mouse striatal cells) is on record as “abrogated”. Besides, the “Drp1 translocation to the mitochondria” value in experiment [4] (HD mouse striatal cells, 1 μM/day for 4 days) is on record as “abrogated”. Further, the “inhibitory effect on Drp1 tetramer formation” value in experiment [4] (upon ATAD3A knockdown) is “abolished upon ATAD3A knockdown”.
